Experimental data published in patent US7375180B2, “Methods and compositions related to IRM compounds and Toll-like receptor 8” (3M Innovative Properties Company, priority 2003, dated 2008).

Experiments:
TLR8 = molecular target: T1, TLR8 (Homo sapiens, UniProt Q9NR97); experiment: NF-κB-luciferase reporter activation in HEK293-TLR8 cells, 10 μM IRM (Example 1); format: cell-based; design: expressed in transfected cells; host or cells: HEK293 (ATCC CRL-1573), pIRES vector, G-418 selected, co-transfected with NFkB-luc reporter; details: for Fold Increase Over DMSO Control, HEK293-TLR8: 16 hours, luciferase signal, TLR8-transfected cells; for Fold Increase Over DMSO Control, HEK293-TLR8 / HEK293-vector: ratio of TLR8-transfected to vector-transfected cells
T1 sequence (Q9NR97 27-1041): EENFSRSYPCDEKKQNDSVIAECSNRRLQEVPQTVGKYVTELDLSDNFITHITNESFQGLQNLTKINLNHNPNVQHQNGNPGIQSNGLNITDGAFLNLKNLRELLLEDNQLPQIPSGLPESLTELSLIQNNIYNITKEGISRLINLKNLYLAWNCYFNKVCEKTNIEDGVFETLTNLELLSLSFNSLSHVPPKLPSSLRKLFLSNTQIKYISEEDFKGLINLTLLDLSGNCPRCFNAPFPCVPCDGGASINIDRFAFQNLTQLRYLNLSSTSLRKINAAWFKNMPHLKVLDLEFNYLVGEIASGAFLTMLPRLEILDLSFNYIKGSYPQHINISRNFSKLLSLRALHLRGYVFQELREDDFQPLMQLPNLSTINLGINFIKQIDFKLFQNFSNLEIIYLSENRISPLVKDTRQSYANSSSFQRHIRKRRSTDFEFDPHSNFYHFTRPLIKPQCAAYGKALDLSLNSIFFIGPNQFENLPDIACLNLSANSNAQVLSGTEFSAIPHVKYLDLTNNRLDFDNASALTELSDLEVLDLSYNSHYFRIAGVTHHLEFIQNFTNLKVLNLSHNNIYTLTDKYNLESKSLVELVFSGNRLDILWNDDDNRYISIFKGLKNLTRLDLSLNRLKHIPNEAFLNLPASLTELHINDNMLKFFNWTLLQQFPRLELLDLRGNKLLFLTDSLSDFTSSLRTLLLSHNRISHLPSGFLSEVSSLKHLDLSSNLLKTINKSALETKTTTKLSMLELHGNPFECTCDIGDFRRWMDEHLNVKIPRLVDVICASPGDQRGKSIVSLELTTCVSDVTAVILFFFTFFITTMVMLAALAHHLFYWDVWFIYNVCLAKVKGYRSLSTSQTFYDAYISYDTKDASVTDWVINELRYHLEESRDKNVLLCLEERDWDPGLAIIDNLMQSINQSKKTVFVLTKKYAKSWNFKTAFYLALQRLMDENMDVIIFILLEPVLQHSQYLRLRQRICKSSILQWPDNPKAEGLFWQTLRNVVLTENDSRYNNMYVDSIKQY
Description: (§1) HEK293 cells, derived from human embryonic kidney cells, may be co-transfected with (1) either a control vector (HEK293-vector) or a vector construct including human TLR8 (HEK293-TLR8), and (2) an NF-κB-luciferase reporter. The NF-κB-luciferase reporter provides a luciferase signal upon NF-κB activation in a transfected cell. Thus, TLR8-mediated NF-κB activity can be detected by exposing the cells transfected with vector and the cells transfected with the TLR8 construct to a test compound, then comparing the luciferase signal of the vector-transfected cells with the luciferase signal of the cells transfected with the TLR8 construct.
(§2) HEK293 cells were cultured in 90% Minimum Essential Medium (MEM) with 2 mM L-glutamine and Earle's Balanced Salt Solution (Invitrogen Corp., Rockville, Md.) adjusted to contain 1.5 g/L sodium bicarbonate, 0.1 mM non-essential amino acids, and 1.0 mM sodium pyruvate; 10% heat-inactivated fetal calf serum. The cells were incubated at 37° C., 8% CO2.
(§3) The cells were co-transfected with (1) pIRES (BD Biosciences Clontech, Palo Alto, Calif.) either (a) unmodified (HEK293-vector) or (b) containing human TLR8 (HEK293-TLR8), and (2) NFkB-luc reporter (Stratagene, La Jolla, Calif.) in a 10:1 ratio with Fugene 6 transfection reagent (Roche Diagnostics Corp., Indianapolis, Ind.) following the manufacturer's instructions.
(§4) The cells were stimulated with 1 μL of IRM compounds at 1 mM in DMSO (final IRM concentration of 10 μM) or 1 μL DMSO as a control. The plates were then incubated an additional 16 hours at 37° C., 5% CO2. Luminescence was measured on an LMAX luminometer (Molecular Devices Corp., Sunnyvale, Calif.).

HEK293-vector = experiment: NF-κB-luciferase reporter activation in HEK293-vector control cells, 10 μM IRM (Example 1); format: cell-based, human; details: 16 hours, luciferase signal, vector-transfected cells; for fold induction at 10 µM: Homo sapiens, read-out: Fold Increase Over DMSO Control, HEK293-vector
Description: as §1, §2, §3, §4

| SMILES | Fold Increase Over DMSO Control, HEK293-TLR8 (TLR8) [fold] | Fold Increase Over DMSO Control, HEK293-TLR8 / HEK293-vector (TLR8) | Fold Increase Over DMSO Control, HEK293-vector (HEK293-vector) [fold] | fold induction at 10 µM (HEK293-vector) |
| --- | --- | --- | --- | --- |
| COCCc1nc2c(N)nc3ccccc3c2n1CC(C)(C)O [IRM 2, 4-amino-α,α-dimethyl-2-methoxyethyl-1H-imidazo[4,5-c]quinoline-1-ethanol] | 10.18 | 8.8 | 1.16 |  |
| CCOCc1nc2c(N)nc3ccccc3c2n1CCOCCCOCc1ccccc1 [IRM 4, 1-{2-[3-(benzyloxy)propoxy]ethyl}-2-(ethoxymethyl)-1H-imidazo[4,5-c]quinolin-4-amine] | 2.64 | 6.4 |  | 0.41 |
| CCCCNC(=O)NCCCCn1c(CCCC)nc2c(N)nc3cccnc3c21 [IRM 5, N-[4-(4-amino-2-butyl-1H-imidazo[4,5-c][1,5]naphthyridin-1-yl)butyl]-n′-butylurea] | 2.13 | 2.5 | 0.84 |  |
| CCCCc1nc2c(N)nc3cccnc3c2n1CCNC(=O)C(N)CC(C)C (stereo not drawn) [IRM 6, N^1-[2-(4-amino-2-butyl-1H-imidazo[4,5-c][1,5]naphthyridin-1-yl)ethyl]-2-amino-4-methylpentanamide] | 9.24 | 7.8 |  | 1.19 |
| Nc1nc2ccccc2c2c1ncn2CCCCNC(=O)c1ccccc1Oc1ccccc1 [IRM 7, N^1-[4-(4-amino-1H-imidazo[4,5-c]quinolin-1-yl)butyl]-2-phenoxybenzamide] | 10.69 | 10.5 |  | 1.02 |
| Nc1nc2ccccc2c2c1ncn2CCOCC#Cc1ccncc1.O=C(O)C(F)(F)F.O=C(O)C(F)(F)F [IRM 8, 1-(2-{[3-(4-pyridyl)-2-propynyl]oxy}ethyl)-1H-imidazo[4,5-c]quinolin-4-amine bis(trifluoroacetate)] | 2.38 | 2.0 |  | 1.18 |
| CCCCc1nc2c(N)nc3ccccc3c2n1CCNS(C)(=O)=O [IRM 9, N-[2-(4-amino-2-butyl-1H-imidazo[4,5-c]quinolin-1-yl)ethyl]methanesulfonamide] | 8.64 | 11.2 |  | 0.77 |
| COCCc1nc2c(N)nc3ccccc3c2n1CCOCCNC(=O)Nc1ccccc1 [IRM 10, N-(2-{2-[4-amino-2-(2-methoxyethyl)-1H-imidazo[4,5-c]quinolin-1-yl]ethoxy}ethyl)-n′-phenylurea] | 7.25 | 6.7 | 1.08 |  |
| CCOCc1nc2c(N)nc3ccccc3c2n1CC(C)(C)N [IRM 11, 1-(2-amino-2-methylpropyl)-2-(ethoxymethyl)-1H-imidazo[4,5-c]quinolin-4-amine] | 3.14 | 2.1 |  | 1.47 |
| CCc1nc2c(N)nc3ccccc3c2n1CCCCS(=O)(=O)c1cc(Cl)cc(Cl)c1 [IRM 12, 1-{4-[(3,5-dichlorophenyl)sulfonyl]butyl}-2-ethyl-1H-imidazo[4,5-c]quinolin-4-amine] | 6.04 | 5.2 |  | 1.16 |
| CCOCc1nc2c(N)nc3ccccc3c2n1CCOCCNC(=O)NC1CCCCC1 [IRM 13, N-(2-{2-[4-amino-2-(ethoxymethyl)-1H-imidazo[4,5-c]quinolin-1-yl]ethoxy}ethyl)-n′-cyclohexylurea] | 2.33 | 2.3 | 0.99 |  |
